Laboratory results from the Biogen ADME set (Fang et al. 2023).
Values after ≈ are worked out from the molar mass of the structure shown.

Conditions: for aqueous solubility: pH 6.8

Q: Which MDR1-MDCK efflux ratio does the source give for `COc1ccc(CN[C@@H]2CCC[C@H]2Cc2cc(C)no2)cc1OC` here?
A: 3.3

Q: And the intrinsic clearance, human liver microsomes?
A: 36.9 mL/min/kg

Q: What about the intrinsic clearance, rat liver microsomes of the same molecule?
A: 1120 mL/min/kg

Q: With `Cc1cccc(NC(=O)N2CCC(N3CC=CC3)CC2)c1Cl` as the molecule, how does the MDR1-MDCK efflux ratio read?
A: 0.517

Q: And the intrinsic clearance, human liver microsomes?
A: 9.11 mL/min/kg

Q: And the intrinsic clearance, rat liver microsomes?
A: 1040 mL/min/kg

Q: Which MDR1-MDCK efflux ratio does the source give for `COCC1(CNC(=O)c2cc(Cl)cnc2O)CCC1` here?
A: 5.64

Q: What about the intrinsic clearance, human liver microsomes of the same molecule?
A: 16.3 mL/min/kg

Q: What about the intrinsic clearance, rat liver microsomes of the same molecule?
A: 475 mL/min/kg

Q: With `COc1ccccc1-c1csc(-n2ncc(C#N)c2N)n1` as the molecule, how does the aqueous solubility read?
A: 0.13 µg/mL (≈ 0.437 µM)

Q: What does the source list for `CN(CCN1CCCCC1)c1cncc(C(N)=O)n1`?
A: MDR1-MDCK efflux ratio: 4.41; intrinsic clearance, human liver microsomes: ≤ 4.74 mL/min/kg; intrinsic clearance, rat liver microsomes: 95.2 mL/min/kg

Q: With `Cc1cc(C#N)cc(N2CCc3c(ncn3CCc3ccccc3)C2)n1` as the molecule, how does the MDR1-MDCK efflux ratio read?
A: 1.22

Q: What about the intrinsic clearance, human liver microsomes of the same molecule?
A: 975 mL/min/kg

Q: And the intrinsic clearance, rat liver microsomes?
A: 3430 mL/min/kg

Q: Which intrinsic clearance, human liver microsomes does the source give for `O=C(C1CCCN(c2cnccn2)C1)N1CCc2ccccc2C1` (stereo unspecified) here?
A: 273 mL/min/kg

Q: What about the intrinsic clearance, rat liver microsomes of the same molecule?
A: 4500 mL/min/kg

Q: And the aqueous solubility?
A: 53.2 µg/mL (≈ 165 µM)

Q: Which MDR1-MDCK efflux ratio does the source give for `CC(C)Oc1ccc(C2(C(=O)NC3CCS(=O)(=O)CC3)CCCC2)cc1` here?
A: 37.9

Q: What about the intrinsic clearance, human liver microsomes of the same molecule?
A: 15.7 mL/min/kg

Q: What about the intrinsic clearance, rat liver microsomes of the same molecule?
A: 210 mL/min/kg

Q: With `O=C(Nc1ccc(C(=O)O)c(O)c1)c1ccc(NC(=O)c2cccs2)cc1` as the molecule, how does the MDR1-MDCK efflux ratio read?
A: 0.572

Q: And the intrinsic clearance, human liver microsomes?
A: ≤ 4.74 mL/min/kg

Q: And the intrinsic clearance, rat liver microsomes?
A: ≤ 10.7 mL/min/kg

Q: What about the aqueous solubility of the same molecule?
A: 54.3 µg/mL (≈ 142 µM)

Q: For `Cc1nc(N)c2c(C(F)(F)F)cc(C3CCN(C(=O)Cc4ccc(F)cc4)CC3)nc2n1`, which MDR1-MDCK efflux ratio is on record?
A: 28.5

Q: And the intrinsic clearance, human liver microsomes?
A: 50.3 mL/min/kg

Q: What about the intrinsic clearance, rat liver microsomes of the same molecule?
A: 874 mL/min/kg

Q: And the aqueous solubility?
A: 59.6 µg/mL (≈ 133 µM)

Q: Which results are given for `CSc1cccc(-c2ccccc2-c2nnc(C)o2)c1`?
A: MDR1-MDCK efflux ratio: 0.652; intrinsic clearance, human liver microsomes: 145 mL/min/kg; intrinsic clearance, rat liver microsomes: 2460 mL/min/kg; aqueous solubility: 41.5 µg/mL (≈ 147 µM)

Q: With `COc1ccc(OCc2nn3c(-c4ccc(OC)cc4)nnc3s2)cc1` as the molecule, how does the MDR1-MDCK efflux ratio read?
A: 0.536

Q: What about the aqueous solubility of the same molecule?
A: 0.2 µg/mL (≈ 0.543 µM)

Q: With `C=CCNC(=O)C1(Cc2ccc(-c3ccccc3)cc2)CCN(C(=O)c2cccnc2)CC1` as the molecule, how does the MDR1-MDCK efflux ratio read?
A: 28

Q: What about the intrinsic clearance, human liver microsomes of the same molecule?
A: 76.7 mL/min/kg

Q: What about the intrinsic clearance, rat liver microsomes of the same molecule?
A: 557 mL/min/kg

Q: And the aqueous solubility?
A: 4 µg/mL (≈ 9.1 µM)

Q: For `COc1ccc(OCc2n[nH]c(-c3ncoc3C(C)C)n2)cc1`, which MDR1-MDCK efflux ratio is on record?
A: 0.675

Q: And the intrinsic clearance, human liver microsomes?
A: 17.8 mL/min/kg

Q: What about the intrinsic clearance, rat liver microsomes of the same molecule?
A: 514 mL/min/kg

Q: Which intrinsic clearance, human liver microsomes does the source give for `CN1C(=O)c2ccc(C(=O)N3CCN(C4CCCCC4)CC3)cc2C1=O` here?
A: 18.5 mL/min/kg

Q: And the intrinsic clearance, rat liver microsomes?
A: 137 mL/min/kg

Q: What does the source list for `Cc1cccc(OC2CN(C(=O)Cn3c(C)nn(-c4ccccc4)c3=O)C2)c1`?
A: MDR1-MDCK efflux ratio: 0.993; intrinsic clearance, human liver microsomes: 13.5 mL/min/kg; intrinsic clearance, rat liver microsomes: 103 mL/min/kg; aqueous solubility: 5.11 µg/mL (≈ 13.5 µM)

Q: Which MDR1-MDCK efflux ratio does the source give for `c1ccc(CN2CCn3nccc3C2)cc1` here?
A: 0.584

Q: And the intrinsic clearance, human liver microsomes?
A: ≤ 4.74 mL/min/kg

Q: What about the intrinsic clearance, rat liver microsomes of the same molecule?
A: 31 mL/min/kg

Q: What about the aqueous solubility of the same molecule?
A: 15.3 µg/mL (≈ 71.7 µM)

Q: What does the source list for `C#CCNC(=O)N(Cc1ccccc1F)C1CCOCC1`?
A: MDR1-MDCK efflux ratio: 2.15; intrinsic clearance, human liver microsomes: ≤ 4.74 mL/min/kg; intrinsic clearance, rat liver microsomes: 35.5 mL/min/kg

Q: For `CCc1c2c(nc3ccc(O)cc13)-c1cc3c(c(=O)n1C2)COC(=O)[C@]3(O)CC`, which MDR1-MDCK efflux ratio is on record?
A: 50.8

Q: What about the intrinsic clearance, human liver microsomes of the same molecule?
A: 18.3 mL/min/kg

Q: What about the intrinsic clearance, rat liver microsomes of the same molecule?
A: ≤ 10.7 mL/min/kg

Q: Which aqueous solubility does the source give for `C=CCN(c1ccc(C(=O)OC)cc1)S(=O)(=O)c1ccccc1` here?
A: 2.24 µg/mL (≈ 6.76 µM)

Q: For `Cc1ncc(CN2CC[C@@H](Nc3cncc(Cl)n3)[C@@H](C)C2)s1`, which MDR1-MDCK efflux ratio is on record?
A: 0.974

Q: And the fraction unbound, human plasma?
A: 0.16

Q: What about the fraction unbound, rat plasma of the same molecule?
A: 0.184

Q: What about the intrinsic clearance, human liver microsomes of the same molecule?
A: 75.6 mL/min/kg

Q: What about the intrinsic clearance, rat liver microsomes of the same molecule?
A: 637 mL/min/kg

Q: And the aqueous solubility?
A: 52.8 µg/mL (≈ 156 µM)

Q: With `Cc1ccc(-c2noc3nc(C)cc(C(=O)O)c23)cc1` as the molecule, how does the MDR1-MDCK efflux ratio read?
A: 2.93

Q: What about the intrinsic clearance, human liver microsomes of the same molecule?
A: ≤ 4.74 mL/min/kg

Q: And the intrinsic clearance, rat liver microsomes?
A: ≤ 10.7 mL/min/kg

Q: And the aqueous solubility?
A: 74.3 µg/mL (≈ 277 µM)

Q: Which MDR1-MDCK efflux ratio does the source give for `COc1ccc(C(=O)N2CCN(C(=O)/C=C/c3ccc(Br)cc3)CC2)cc1` here?
A: 0.858
